System: nitrification
Experiment: Inhibition of nitrification in soil incubation test (ammonium and nitrate content after 14 days)
Details: 100 g soil, 10 mg ammoniumsulfate-N, 20° C., 0 and 14 days; for NI* @ 0.3%: compound at 0.3% of nitrogen N; for NI* @ 1%: compound at 1% of nitrogen N; for NI* @ 3%: compound at 3% (of nitrogen N)
Protocol: The compounds of the invention have been tested as follows in terms of the inhibition of nitrification:
100 g soil is filled into 500 ml plastic bottles (e.g. soil sampled from the field) and is moistened to 50% water holding capacity. The soil is incubated at 20° C. for two weeks to activate the microbial biomass. 1 ml test solution, containing the compound in the appropriate concentration (usually 0.3 or 1% of nitrogen N), or DMSO and 10 mg nitrogen in the form of ammoniumsulfate-N is added to the soil and everything mixed well. Bottles are capped but loosely to allow air exchange. The bottles are then incubated at 20° C. for 0 and 14 days.
For analysis, 300 ml of a 1% K2SO4-solution is added to the bottle containing the soil and shaken for 2 hours in a horizontal shaker at 150 rpm. Then the whole solution is filtered through a filter (Macherey-Nagel Filter MN 807%). Ammonium and nitrate content is then analyzed in the filtrate in an autoanalyzer at 550 nm (Merck, AA11).
The inhibition (NI® a specified concentration) is calculated as follows: […]

Compound	NI* @ 0.3%	NI* @ 1%	NI* @ 3%
CSC1=NCCS1 [Cmpd 1, 2-(Methylthio)-2-thiazoline]	60.1	90.2	88
CC#CSC1=NCCS1 [Cmpd 2, 2-(Propynylthio)-2-thiazoline]	–	–	76.3
SC1=NCCS1 [Cmpd 3, 2-Mercapto-2-thiazoline]	–	47	83.5
CC1(C)CSC(S)=N1 [Cmpd 4, 4,4-Dimethyl-2-mercaptothiazoline]	–	–	57.5
O=C(Nc1ccccc1)SC1=NCCS1 [Cmpd 5, 2-(Phenylaminocarbonylthio)-2-thiazoline]	–	–	55
Br.O=C(CSC1=NCCS1)c1ccccc1 [Cmpd 6, 2-(2-Thiazolin-2-ylthio)-acetophenone, hydrobromide]	21	31	53.9
Cc1cc(Cl)ccc1SC1=NCCS1 [Cmpd. 7, 2-(4-Chloro-2-methylphenylthio)-2-thiazoline]	–	25.7	48.8
CCNC(=O)SC1=NCCS1 [Cmpd. 8, 2-(Ethylaminocarbonylthio)-2-thiazoline]	–	–	43.1
CCSC1=NCCS1 [Cmpd. 9, 2-(Ethylthio)-2-thiazoline]	–	22	–
COC(=O)CSC1=NCCS1 [Cmpd. 10, (2-Thiazolin-2-ylthio)-acetic acid, methyl ester]	–	21.5	–
CN(C)C(=S)SC1NCCS1 (stereo not drawn) [Cmpd. 11, 4,5-dihydro-3H-thiazol-2-yl N,N-dimethylcarbamodithioate]	–	31.2	58.4

Reference: patent publication US12122728B2, “Use of substituted 2-thiazolines as nitrification inhibitors” (BASF SE, priority 2018, dated 2024)
